# What was measured:
# JAK 3 = molecular target: T1, JAK 3 (Homo sapiens, UniProt P52333); test: Biochemical potency on JAK3, TR-FRET LANCE Ultra kinase assay (examples 1-99); conditions: ATP at Km (0.2 μM), read-out: JAK3 inhibitory activity (pIC50 class) (converted)
# T1 sequence (P52333 1-1124): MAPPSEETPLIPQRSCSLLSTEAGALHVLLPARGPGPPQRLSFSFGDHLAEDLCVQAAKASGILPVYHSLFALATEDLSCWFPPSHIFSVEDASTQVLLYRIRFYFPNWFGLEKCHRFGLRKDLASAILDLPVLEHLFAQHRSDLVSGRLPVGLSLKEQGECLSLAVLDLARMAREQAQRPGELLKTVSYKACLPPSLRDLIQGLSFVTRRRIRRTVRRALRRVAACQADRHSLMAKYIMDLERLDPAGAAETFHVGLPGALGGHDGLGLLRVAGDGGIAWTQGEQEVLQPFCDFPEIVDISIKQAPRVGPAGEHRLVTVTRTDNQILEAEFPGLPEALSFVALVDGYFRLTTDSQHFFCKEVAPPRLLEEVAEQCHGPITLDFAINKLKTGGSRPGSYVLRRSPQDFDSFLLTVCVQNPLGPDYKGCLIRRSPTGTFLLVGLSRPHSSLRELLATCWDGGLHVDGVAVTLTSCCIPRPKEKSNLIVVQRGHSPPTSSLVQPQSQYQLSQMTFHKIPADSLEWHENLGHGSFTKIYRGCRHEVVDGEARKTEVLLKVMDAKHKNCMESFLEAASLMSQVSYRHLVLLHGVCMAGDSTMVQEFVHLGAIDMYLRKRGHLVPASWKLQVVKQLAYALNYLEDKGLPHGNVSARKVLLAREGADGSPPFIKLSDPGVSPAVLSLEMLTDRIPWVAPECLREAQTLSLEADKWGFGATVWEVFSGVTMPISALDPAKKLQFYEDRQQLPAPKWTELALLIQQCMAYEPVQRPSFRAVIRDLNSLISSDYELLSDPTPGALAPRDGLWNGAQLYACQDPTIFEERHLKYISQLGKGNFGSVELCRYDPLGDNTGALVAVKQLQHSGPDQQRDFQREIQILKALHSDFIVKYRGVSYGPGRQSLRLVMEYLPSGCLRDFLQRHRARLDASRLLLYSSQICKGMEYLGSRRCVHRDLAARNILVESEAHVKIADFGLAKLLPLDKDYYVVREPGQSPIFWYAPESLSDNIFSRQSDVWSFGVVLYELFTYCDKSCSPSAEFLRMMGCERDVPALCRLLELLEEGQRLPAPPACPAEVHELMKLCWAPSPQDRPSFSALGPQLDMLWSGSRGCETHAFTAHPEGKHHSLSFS
# Experimental: (§1) The objective of this study was to assess the capability of compounds to inhibit all 4 JAK isoforms activity in a cell-free environment. Assay for JAK 1, JAK 2, JAK 3 and TYK2 were performed by Time-resolved fluorescence resonance energy transfer (TR-FRET) technology. It consists in the interaction of two labelled binding partners detected by the energy transfer from an excited donor to an acceptor dye and measurement of light emission by the acceptor dye. LANCE Ultra kinase assay was used. In presence of JAK 1, JAK 2, JAK 3 and TYK2 kinases and ATP (corresponding to Km), the ULight peptide substrate (LANCE Ulight-JAK-1 (Tyr1023) Peptide, Perkin Elmer, TRF0121) is phosphorylated. It is then captured by Eu-anti-phospho-substrate antibody (LANCE Eu-W1024 Anti-phosphotyrosine (PT66), Perkin Elmer, AD0069), which bring the Eu-chelate donor and ULight acceptor dyes into close proximity. Upon excitation at 320 nm, the Eu-chelate transfers its energy to the ULight dye, resulting in a fluorescent light emission at 665 nm.
# (§2) Serial dilutions of compounds in pure DMSO are prepared from 10 mM DMSO stock solutions. Compounds were tested in 384-well plate for 11 consecutive 5-fold dilutions starting from 20 μM highest concentration (20 μM-[…]). 200 nL of compound were transferred from mother plate to test plate by using Mosquito (TTP labtech). Assay was performed in 384-well Perkin Elmer test plate in 20 μL assay volume (kinase reaction) and 40 μL total volume (stopping reagent and antibody detection reagents). In 10 μL of substrate solution (peptide+ATP) 30/50/20/10 nM of peptide and 20/0.7/0.2/12 μM of ATP were added for JAK 1, JAK 2, JAK 3 and TYK2 respectively. 10 μL of enzyme solution was added to kinase reaction at these concentrations: 0.15/0.083/0.025/0.144 ng/μL of JAK 1, JAK 2, JAK 3 and TYK2 respectively. After shaking and 1.5 h of incubation at r.t., 20 μL of Stop (10 μL EDTA) and Detection mixture (10 μL Europium-anti-phospho antibody, final: 0.5 nM) were added. Reading was performed after 1 h of incubation on a EnVision 2104 reader (Perkin Elmer).
# (§3) Calculation of IC50 data, curves and QC analysis was performed by using Excel tool and GraphPadPrism software, v9. Briefly, individual concentration-effect curves are generated by plotting the logarithm of the tested concentration of tested compounds (X) vs. corresponding percent inhibition values (Y) using least squares (ordinary) fit. Best fit IC50 values are calculated using Log(inhibitor) vs. normalized response—Variable slope equation, where Y=100/(1+10^((Log IC50−X)*HillSlope)). QC criteria parameters (Z′, S:B, R2, HillSlope) were checked for every IC50 curve. Calculation of IC50 data, curves and QC analysis were made using Excel tools and GraphPadPrism software. QC criteria parameters: Z′≥0.5, Hill Slope range 0.5 to 5, S:B>2.
# JAK 1 = JAK 1 (Homo sapiens, UniProt P23458); test: Biochemical potency on JAK1, TR-FRET LANCE Ultra kinase assay (examples 1-99); conditions: ATP at Km (20 μM), read-out: JAK1 inhibitory activity (pIC50 class) (converted)
# Experimental: as §1, §2, §3
# JAK 2 = JAK 2 (Homo sapiens, UniProt O60674); test: Biochemical potency on JAK2, TR-FRET LANCE Ultra kinase assay (examples 1-99); conditions: ATP at Km (0.7 μM), read-out: JAK2 inhibitory activity (pIC50 class) (converted)
# Experimental: as §1, §2, §3
# TYK2 = TYK2 (Homo sapiens, UniProt P29597); test: Biochemical potency on Tyk2, TR-FRET LANCE Ultra kinase assay (examples 1-99); conditions: ATP at Km (12 μM), read-out: Tyk2 inhibitory activity (pIC50 class) (converted)
# Experimental: as §1, §2, §3
# JAK 1, sequence (P23458 whole entry): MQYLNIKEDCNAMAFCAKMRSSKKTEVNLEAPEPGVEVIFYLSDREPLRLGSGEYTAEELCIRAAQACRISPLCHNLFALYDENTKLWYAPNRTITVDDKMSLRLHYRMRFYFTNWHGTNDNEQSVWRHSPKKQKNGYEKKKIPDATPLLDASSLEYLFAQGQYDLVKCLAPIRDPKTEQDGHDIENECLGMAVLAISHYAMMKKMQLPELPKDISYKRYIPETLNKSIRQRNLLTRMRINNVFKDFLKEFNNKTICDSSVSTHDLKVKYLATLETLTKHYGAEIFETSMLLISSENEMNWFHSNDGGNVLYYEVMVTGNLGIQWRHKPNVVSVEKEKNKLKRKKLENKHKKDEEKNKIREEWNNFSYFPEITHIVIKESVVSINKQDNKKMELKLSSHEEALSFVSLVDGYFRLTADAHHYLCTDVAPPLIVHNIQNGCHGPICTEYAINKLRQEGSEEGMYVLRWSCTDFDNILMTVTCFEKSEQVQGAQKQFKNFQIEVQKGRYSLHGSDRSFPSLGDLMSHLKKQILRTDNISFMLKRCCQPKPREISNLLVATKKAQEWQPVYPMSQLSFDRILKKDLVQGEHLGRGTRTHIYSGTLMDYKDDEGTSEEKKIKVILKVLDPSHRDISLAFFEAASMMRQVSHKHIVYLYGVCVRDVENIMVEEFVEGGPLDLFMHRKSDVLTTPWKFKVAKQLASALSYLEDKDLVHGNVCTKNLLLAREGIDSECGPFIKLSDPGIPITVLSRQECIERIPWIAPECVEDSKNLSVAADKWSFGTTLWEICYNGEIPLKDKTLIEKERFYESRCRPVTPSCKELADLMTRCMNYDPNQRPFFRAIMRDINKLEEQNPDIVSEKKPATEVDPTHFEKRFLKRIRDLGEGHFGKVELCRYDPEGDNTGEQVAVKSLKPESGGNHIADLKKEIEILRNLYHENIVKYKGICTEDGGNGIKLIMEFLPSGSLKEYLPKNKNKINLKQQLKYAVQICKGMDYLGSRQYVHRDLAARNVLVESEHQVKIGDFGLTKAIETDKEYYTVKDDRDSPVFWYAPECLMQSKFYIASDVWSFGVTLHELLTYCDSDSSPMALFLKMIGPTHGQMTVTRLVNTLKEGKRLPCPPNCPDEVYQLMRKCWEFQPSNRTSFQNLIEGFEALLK
# TYK2, sequence (P29597 whole entry): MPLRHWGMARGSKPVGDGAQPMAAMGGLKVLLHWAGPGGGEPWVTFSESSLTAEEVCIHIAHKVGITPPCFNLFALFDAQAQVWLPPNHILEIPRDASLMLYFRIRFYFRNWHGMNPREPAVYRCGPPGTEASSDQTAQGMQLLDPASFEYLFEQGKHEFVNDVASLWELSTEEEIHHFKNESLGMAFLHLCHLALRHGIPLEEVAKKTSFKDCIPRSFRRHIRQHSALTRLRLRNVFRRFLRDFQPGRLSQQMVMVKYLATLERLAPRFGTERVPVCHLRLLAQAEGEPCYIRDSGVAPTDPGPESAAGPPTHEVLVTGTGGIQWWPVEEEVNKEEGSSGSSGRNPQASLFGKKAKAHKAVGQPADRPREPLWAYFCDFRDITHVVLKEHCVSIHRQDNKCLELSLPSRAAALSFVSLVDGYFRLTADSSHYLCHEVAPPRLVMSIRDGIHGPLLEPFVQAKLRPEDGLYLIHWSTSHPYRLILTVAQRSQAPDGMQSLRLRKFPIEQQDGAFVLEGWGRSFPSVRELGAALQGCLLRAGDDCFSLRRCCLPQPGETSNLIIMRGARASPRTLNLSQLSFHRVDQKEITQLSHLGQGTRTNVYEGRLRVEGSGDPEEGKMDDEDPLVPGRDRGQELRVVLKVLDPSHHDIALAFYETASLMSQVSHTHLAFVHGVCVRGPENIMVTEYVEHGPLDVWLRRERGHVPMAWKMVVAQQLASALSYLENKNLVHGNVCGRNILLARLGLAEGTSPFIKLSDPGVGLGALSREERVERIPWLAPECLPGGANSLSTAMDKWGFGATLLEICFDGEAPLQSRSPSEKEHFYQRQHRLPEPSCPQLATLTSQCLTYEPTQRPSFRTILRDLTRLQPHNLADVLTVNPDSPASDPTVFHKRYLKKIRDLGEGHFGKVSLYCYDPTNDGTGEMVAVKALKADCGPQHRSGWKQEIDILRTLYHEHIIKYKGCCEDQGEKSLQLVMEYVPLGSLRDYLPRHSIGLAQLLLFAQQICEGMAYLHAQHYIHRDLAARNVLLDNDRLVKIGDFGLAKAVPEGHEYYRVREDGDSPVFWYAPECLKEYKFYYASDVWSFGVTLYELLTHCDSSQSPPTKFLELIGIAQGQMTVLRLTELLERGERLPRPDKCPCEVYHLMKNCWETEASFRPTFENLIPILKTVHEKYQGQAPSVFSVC
# JAK 2, sequence (O60674 whole entry): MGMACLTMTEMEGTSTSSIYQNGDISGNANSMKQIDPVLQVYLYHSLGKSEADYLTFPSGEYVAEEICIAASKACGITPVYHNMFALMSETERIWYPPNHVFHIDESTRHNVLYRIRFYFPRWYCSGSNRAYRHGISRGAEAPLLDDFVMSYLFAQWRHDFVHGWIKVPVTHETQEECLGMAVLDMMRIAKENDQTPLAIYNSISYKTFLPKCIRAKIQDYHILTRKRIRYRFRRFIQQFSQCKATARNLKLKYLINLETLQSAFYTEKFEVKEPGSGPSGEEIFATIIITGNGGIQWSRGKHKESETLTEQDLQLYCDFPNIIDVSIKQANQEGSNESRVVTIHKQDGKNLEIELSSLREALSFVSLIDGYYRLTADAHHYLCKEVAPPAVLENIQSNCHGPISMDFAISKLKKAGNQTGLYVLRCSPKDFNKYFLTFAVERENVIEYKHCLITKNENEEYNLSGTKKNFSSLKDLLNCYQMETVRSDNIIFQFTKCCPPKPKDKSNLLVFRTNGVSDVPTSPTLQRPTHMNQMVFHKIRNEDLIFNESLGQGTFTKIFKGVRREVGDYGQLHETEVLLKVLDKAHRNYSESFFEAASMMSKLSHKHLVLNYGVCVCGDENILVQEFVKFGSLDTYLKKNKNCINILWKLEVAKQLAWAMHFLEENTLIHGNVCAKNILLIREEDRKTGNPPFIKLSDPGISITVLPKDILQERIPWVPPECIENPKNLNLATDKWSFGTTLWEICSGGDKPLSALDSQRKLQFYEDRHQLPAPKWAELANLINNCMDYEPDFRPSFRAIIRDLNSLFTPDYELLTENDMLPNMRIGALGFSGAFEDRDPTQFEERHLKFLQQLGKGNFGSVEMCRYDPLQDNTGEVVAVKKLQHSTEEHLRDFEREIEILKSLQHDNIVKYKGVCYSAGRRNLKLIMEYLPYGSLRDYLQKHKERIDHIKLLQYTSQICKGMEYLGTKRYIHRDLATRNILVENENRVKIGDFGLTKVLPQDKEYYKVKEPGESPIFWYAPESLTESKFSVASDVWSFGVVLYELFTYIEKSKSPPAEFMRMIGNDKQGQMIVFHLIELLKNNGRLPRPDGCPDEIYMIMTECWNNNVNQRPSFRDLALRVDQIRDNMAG
IC50 (JAK 3),IC50 (JAK 1),IC50 (JAK 2),IC50 (TYK2),SMILES
5.01 to 50.1 nM,≤ 5.01 nM,≤ 5.01 nM,5.01 to 50.1 nM,"COc1ccc(Cl)cc1-n1nc(C)c2cnc(-c3cnn4cccnc34)cc21 [Example 2, 1-(5-chloro-2-methoxyphenyl)-3-methyl-6-(pyrazolo[1,5-a]pyrimidin-3-yl)-1H-pyrazolo[4,3-c]pyridine]"
> 50.1 nM,5.01 to 50.1 nM,5.01 to 50.1 nM,> 50.1 nM,"COc1ccc(S(=O)(=O)NCC2CN(C)C2)cc1-n1nc(C)c2cnc(-c3cnn4cccnc34)cc21 [Example 17, 4-methoxy-3-(3-methyl-6-(pyrazolo[1,5-a]pyrimidin-3-yl)-1H-pyrazolo[4,3-c]pyridin-1-yl)-N-((1-methylazetidin-3-yl)methyl)benzenesulfonamide]"
5.01 to 50.1 nM,5.01 to 50.1 nM,≤ 5.01 nM,5.01 to 50.1 nM,"COc1ccc(Cl)cc1-n1ncc2c(O)nc(-c3cnn4cccnc34)cc21 [Example 57, 1-(5-chloro-2-methoxyphenyl)-6-(pyrazolo[1,5-a]pyrimidin-3-yl)-1H-pyrazolo[4,3-c]pyridin-4-ol]"
≤ 5.01 nM,5.01 to 50.1 nM,≤ 5.01 nM,5.01 to 50.1 nM,"COc1cccc(S(=O)(=O)c2ccc(OC(F)F)c(-n3nc(C)c4cnc(-c5cnn6cccnc56)cc43)c2)c1 [Example 25, 1-(2-(difluoromethoxy)-5-((3-methoxyphenyl)sulfonyl)phenyl)-3-methyl-6-(pyrazolo[1,5-a]pyrimidin-3-yl)-1H-pyrazolo[4,3-c]pyridine]"
5.01 to 50.1 nM,5.01 to 50.1 nM,5.01 to 50.1 nM,> 50.1 nM,"COc1ccc(S(C)(=O)=O)cc1-n1nc(C(=O)NCCCN(C)C)c2cnc(-c3cnn4cccnc34)cc21 [Example 83, N-(3-(dimethylamino)propyl)-1-(2-methoxy-5-(methylsulfonyl)phenyl)-6-(pyrazolo[1,5-a]pyrimidin-3-yl)-1H-pyrazolo[4,3-c]pyridine-3-carboxamide]"
≤ 5.01 nM,≤ 5.01 nM,≤ 5.01 nM,5.01 to 50.1 nM,"N#CCc1nn(-c2cc(Cl)ccc2OC(F)F)c2cc(-c3cnn4cccnc34)ncc12 [Example 28, 2-(1-(5-chloro-2-(difluoromethoxy)phenyl)-6-(pyrazolo[1,5-a]pyrimidin-3-yl)-1H-pyrazolo[4,3-c]pyridin-3-yl)acetonitrile]"
5.01 to 50.1 nM,5.01 to 50.1 nM,≤ 5.01 nM,5.01 to 50.1 nM,"COc1ccc(C(F)F)cc1-n1nc(NCCN(C)C)c2cnc(-c3cnn4cccnc34)cc21 [Example 44, N1-(1-(5-(difluoromethyl)-2-methoxyphenyl)-6-(pyrazolo[1,5-a]pyrimidin-3-yl)-1H-pyrazolo[4,3-c]pyridin-3-yl)-N2,N2-dimethylethane-1,2-diamine]"
≤ 5.01 nM,≤ 5.01 nM,≤ 5.01 nM,5.01 to 50.1 nM,"Cc1nn(-c2cc(Br)ccc2OC(F)F)c2cc(-c3cnn4cccnc34)ncc12 [Example 63, 1-(5-bromo-2-(difluoromethoxy)phenyl)-3-methyl-6-(pyrazolo[1,5-a]pyrimidin-3-yl)-1H-pyrazolo[4,3-c]pyridine]"
5.01 to 50.1 nM,5.01 to 50.1 nM,5.01 to 50.1 nM,> 50.1 nM,"CNC(=O)CSc1ccc(OC(F)F)c(-n2nc(C)c3cnc(-c4cnn5cccnc45)cc32)c1 [Example 67, 2-((4-(difluoromethoxy)-3-(3-methyl-6-(pyrazolo[1,5-a]pyrimidin-3-yl)-1H-pyrazolo[4,3-c]pyridin-1-yl)phenyl)thio)-N-methylacetamide]"
≤ 5.01 nM,5.01 to 50.1 nM,≤ 5.01 nM,5.01 to 50.1 nM,"COCCS(=O)(=O)c1ccc(OC(F)F)c(-n2nc(C)c3cnc(Nc4ncc[nH]c4=O)cc32)c1 [Example 95, 3-((1-(2-(difluoromethoxy)-5-((2-methoxyethyl)sulfonyl)phenyl)-3-methyl-1H-pyrazolo[4,3-c]pyridin-6-yl)amino)pyrazin-2(1H)-one]"
5.01 to 50.1 nM,5.01 to 50.1 nM,5.01 to 50.1 nM,5.01 to 50.1 nM,"O=C(c1nn(-c2cc(Cl)ccc2OC(F)F)c2cc(-c3cnn4cccnc34)ncc12)N1CCS(=O)(=O)CC1 [Example 35, (1-(5-chloro-2-(difluoromethoxy)phenyl)-6-(pyrazolo[1,5-a]pyrimidin-3-yl)-1H-pyrazolo[4,3-c]pyridin-3-yl)(1,1-dioxidothiomorpholino)methanone]"
≤ 5.01 nM,≤ 5.01 nM,≤ 5.01 nM,5.01 to 50.1 nM,"COc1ccc(Cl)cc1-n1nc(N)c2cnc(-c3cnn4cccnc34)cc21 [Example 39, 1-(5-chloro-2-methoxyphenyl)-6-(pyrazolo[1,5-a]pyrimidin-3-yl)-1H-pyrazolo[4,3-c]pyridin-3-amine]"
> 50.1 nM,> 50.1 nM,5.01 to 50.1 nM,> 50.1 nM,"COc1ccc(S(=O)(=O)NCCCN2CCN(C)CC2)cc1-n1nc(C)c2cnc(-c3cnn4cccnc34)cc21 [Example 16, 4-methoxy-3-(3-methyl-6-(pyrazolo[1,5-a]pyrimidin-3-yl)-1H-pyrazolo[4,3-c]pyridin-1-yl)-N-(3-(4-methylpiperazin-1-yl)propyl)benzenesulfonamide]"
5.01 to 50.1 nM,5.01 to 50.1 nM,5.01 to 50.1 nM,> 50.1 nM,"COc1ccc(S(C)(=O)=O)cc1-n1nc(C(=O)NCCN(C)C)c2cnc(-c3cnn4cccnc34)cc21 [Example 82, N-(2-(dimethylamino)ethyl)-1-(2-methoxy-5-(methylsulfonyl)phenyl)-6-(pyrazolo[1,5-a]pyrimidin-3-yl)-1H-pyrazolo[4,3-c]pyridine-3-carboxamide]"
5.01 to 50.1 nM,5.01 to 50.1 nM,5.01 to 50.1 nM,5.01 to 50.1 nM,"COc1ccc(Cl)cc1-n1ncc2c(N)nc(-c3cnn4cccnc34)cc21 [Example 56, 1-(5-chloro-2-methoxyphenyl)-6-(pyrazolo[1,5-a]pyrimidin-3-yl)-1H-pyrazolo[4,3-c]pyridin-4-amine]"
